Source: ChEMBL document CHEMBL4342401, “Cathepsin B: Active site mapping with peptidic substrates and inhibitors” (Bioorg Med Chem, 2019)
*1 amine or outer side, *2 acyl side, *3 side chain or, on linkers, in order; H or OH if unused. Where a SMILES comes first, the peptide text is derived from it. [ ]: non-standard residue; d: D form. The star is where a group is joined. X1 = CC(C)C[C@H](N[*:1])C(=O)NC(=O)[C@H]1O[C@@H]1C(=O)[*:2]; N(6-aminohexyl)Gly = O=C(CN(CCCCCCN[*:3])[*:1])[*:2]; Biotin = O=C1N[C@H]2[C@H](CS[C@H]2CCCCC(=O)*)N1

Assays:
Cathepsin B (Bos taurus) [1] = biological target: Cathepsin B (Bos taurus) (UniProt P07688); assay: Inhibition of bovine cathepsin B assessed as ratio of Kinact to Ki using Z-Phe-Arg-pNA as substrate by UV/Vis spectrophotometric method
Cathepsin B [2] = biological target: T1, Cathepsin B (Homo sapiens, UniProt P07858); assay: Inhibition of recombinant human cathepsin B expressed in baculovirus expression system using Z-Arg-Arg-AMC as substrate incubated for 20 mins by fluorescence based assay
Cathepsin B [3] = biological target: T1, Cathepsin B; assay: Inhibition of human liver cathepsin B using Z-Phe-Arg-AMC as substrate incubated for 30 mins by fluorescence based assay
Cathepsin B [4] = biological target: T1, Cathepsin B; assay: Inhibition of human liver cathepsin B using Z-Arg-Arg-AMC as substrate preincubated for 15 mins followed by substrate addition and measured after 30 mins by fluorometric method
Cathepsin B [5] = biological target: T1, Cathepsin B; assay: Inhibition of human cathepsin B assessed as ratio of Kinact to Ki using Z-Phe-Arg-NH-Mec as substrate incubated for 15 to 90 mins by fluorometric method
Cathepsin B [6] = biological target: T1, Cathepsin B; assay: Inhibition of cathepsin B (unknown origin) assessed as reduction in 7-amino-4-methylcoumarin formation using Z-Arg-Arg-MCA as substrate preincubated for 3 mins followed by substrate addition and measured after 10 mins by fluorescence spectrometric method
Cathepsin B (Bos taurus) [7] = biological target: Cathepsin B (Bos taurus) (UniProt P07688); assay: Inhibition of bovine spleen cathepsin B assessed as ratio of Kinact to Ki by spectrophotometeric method

For `CC(=O)N[C@@H](Cc1ccccc1)C(=O)NCC(=O)COC(=O)[C@H](CC(C)C)NC(=O)OCc1ccccc1`, the Ratio (Cathepsin B (Bos taurus) [1]) was 2700 M⁻¹ s⁻¹.
With `Cc1cccc(C[C@H](NC(=O)c2ccccc2)C(=O)N[C@H](C#N)COCc2cccc(C(=O)O)c2)c1` the IC50 (Cathepsin B [2]) was less than 10 nM.
In the case of `CC(C)CC(NC(=O)c1ccc(-c2ccc(-c3ccccc3)cc2)cc1)C(=O)N(C)N(C)C#N` (racemic), the Ki (Cathepsin B [3]) is reported as 0.69 nM.
`CN1CCN(C(=O)N[C@@H](Cc2ccccc2)C(=O)N[C@H](/C=C/S(=O)(=O)c2ccccc2)c2ccc(-c3ccccc3)cc2)CC1` gave an IC50 (Cathepsin B [4]) of 300 nM.
For `CCCNC(=O)[C@H]1O[C@@H]1C(=O)N[C@@H](CC(C)C)C(=O)N1CCC[C@H]1C(=O)O`, the Ratio (Cathepsin B [5]) was 152000 M⁻¹ s⁻¹.
`CCCCC(=O)N[C@@H](Cc1cccc(C)c1)C(=O)N[C@H](C#N)COCc1cccc(C(=O)O)c1` gave an IC50 (Cathepsin B [2]) of less than 10 nM.
For `CC(C)C[C@H](NC(=O)CNC(=O)CNCCCCCCNC(=O)CCCC[C@@H]1SC[C@@H]2NC(=O)N[C@@H]21)C(=O)NC(=O)[C@H]1O[C@@H]1C(=O)N[C@@H](CC(C)C)C(=O)N1CCC[C@H]1C(=O)O` (H-[N(6-aminohexyl)Gly](Biotin)G[X1]LP-OH), the Ratio (Cathepsin B [5]) was 1.6e+06 M⁻¹ s⁻¹.
For `Cc1cccc(C[C@H](NC(=O)c2ccc(Cl)cc2F)C(=O)N[C@H](C#N)COCc2cccc(C(=O)O)c2)c1`, the IC50 (Cathepsin B [2]) was less than 10 nM.
For `CCOC(=O)[C@H]1O[C@@H]1C(=O)N[C@H](C(=O)N1CCC[C@H]1C(=O)O)[C@@H](C)CC`, the IC50 (Cathepsin B [6]) was 2.28 nM.
For `COC(=O)CNC(=O)CNC(=O)[C@H](CC(C)C)NC(=O)[C@H]1O[C@@H]1C(=O)N[C@@H](CC(C)C)C(=O)N1CCC[C@H]1C(=O)O`, the Ratio (Cathepsin B [5]) was 1.52e+06 M⁻¹ s⁻¹.
With `CC(C)CCNC(=O)[C@H](Cc1cc(I)c(O)c(I)c1)NC(=O)[C@H]1O[C@@H]1C(=O)O` the Ratio (Cathepsin B (Bos taurus) [7]) was 105000 M⁻¹ s⁻¹.
With `CCCNC(=O)[C@@H]1O[C@H]1C(=O)N[C@@H](CC(C)C)C(=O)N1CCC[C@H]1C(=O)O` the Ratio (Cathepsin B [5]) was 29400 M⁻¹ s⁻¹.
Work on `CC(=O)N[C@@H](Cc1ccccc1)C(=O)NCC(=O)COC(=O)[C@@H](CC(C)C)NC(=O)OCc1ccccc1` yielded a Ratio (Cathepsin B (Bos taurus) [1]) of 300 M⁻¹ s⁻¹.
In the case of `CC(C)CCNC(=O)[C@H](Cc1ccccc1)NC(=O)[C@H]1O[C@@H]1C(=O)O`, the Ratio (Cathepsin B (Bos taurus) [7]) is reported as 12300 M⁻¹ s⁻¹.
Compound `CC(C)CC(NC(=O)c1cccc(-c2ccncc2)c1)C(=O)N(C)N(C)C#N` (racemic) has a Ki (Cathepsin B [3]) of 5 nM.
In the case of `CC(C)CC(NC(=O)c1ccc(Br)cc1)C(=O)N(C)N(C)C#N` (racemic), the Ki (Cathepsin B [3]) is reported as 2 nM.
With `CCOC(=O)[C@@H]1O[C@H]1C(=O)N[C@@H](CC(C)C)C(=O)N1CCC[C@H]1C(=O)O` the Ratio (Cathepsin B [5]) was 567000 M⁻¹ s⁻¹.
Compound `CCOC(=O)[C@H]1O[C@@H]1C(=O)N[C@@H](CC(C)C)C(=O)N1CCC[C@H]1C(=O)O` has a Ratio (Cathepsin B [5]) of 44400 M⁻¹ s⁻¹.
